Like-named read-outs stand apart in the source and are kept apart here.
Columns and labels:
[1] = applied to the epithelium of the skin, gout model
Text: Once that occurred, the lithium acted on the tissues and blood vessels surrounding the joint, preventing the entry of the inflammatory cells into the joint.

[2] = test system: MSU-induced gout in the rat ankle; settings: photomicrograph at 2-times magnification after topical administration
Text: It was anticipated that the pathology may bring additional clarity to show lithium carbonate's action on the cytokine storm. Rat ankle samples banked in formalin were sent for microscopic analysis.

GSK3B = GSK3B (Homo sapiens, UniProt P49841); settings: in neutrophils; cited from earlier work
[3] = serum of subjects tested; cited from earlier work
[4] = test system: MSU-induced gout in the rat ankle; settings: for KC-GRO (KC/GRO) level: synovial fluid, eight hours post MSU-induced gout
[5] = BRT rat MSU model, eight hours post MSU, topical application

GSK3B, sequence (P49841 whole entry, species assumed): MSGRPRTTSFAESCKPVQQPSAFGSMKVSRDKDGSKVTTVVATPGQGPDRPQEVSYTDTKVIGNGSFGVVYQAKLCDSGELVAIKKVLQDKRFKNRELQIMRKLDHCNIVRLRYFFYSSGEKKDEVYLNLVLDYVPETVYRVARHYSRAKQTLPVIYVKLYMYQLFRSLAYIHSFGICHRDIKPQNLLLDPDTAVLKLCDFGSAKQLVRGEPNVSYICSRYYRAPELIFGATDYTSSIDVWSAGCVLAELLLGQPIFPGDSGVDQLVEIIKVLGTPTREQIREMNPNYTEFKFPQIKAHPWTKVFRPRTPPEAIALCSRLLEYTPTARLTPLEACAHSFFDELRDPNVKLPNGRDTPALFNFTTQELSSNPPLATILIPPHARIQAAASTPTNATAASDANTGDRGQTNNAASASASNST

**Q.** For `O=C([O-])[O-].[Li+].[Li+]` [lithium carbonate], which “Penetration of skin epithelium” value [1] is on record?
**A.** penetrated to the synovium

**Q.** And the Edema [2]?
**A.** minimal edema

**Q.** And the “Raft of white blood cells” value [2]?
**A.** only a very small raft of white blood cells

**Q.** And the Synovial hypertrophy [2]?
**A.** minimal synovial hypertrophy

**Q.** What about the “Increase of TNF-α protein synthesis” value (GSK3B) of the same molecule?
**A.** > 3 fold

**Q.** What about the IL-1β in serum [3] of the same molecule?
**A.** consistent increase

**Q.** And the IL-6 in serum [3]?
**A.** consistent increase

**Q.** And the TNF-α in serum [3]?
**A.** consistent increase

**Q.** And the IL-1β level [4, 5]?
**A.** induction

**Q.** And the IL-6 level [4, 5]?
**A.** induction

**Q.** What about the TNF-α level [4, 5] of the same molecule?
**A.** induction

**Q.** What about the “KC-GRO (KC/GRO) level” value ([4]; rat ankle, topical application) of the same molecule?
**A.** Attenuation

**Q.** And the “KC-GRO (KC/GRO) level” value ([4]; rat ankle, topical application, listed as lithium)?
**A.** surprisingly lessened

**Q.** And the Effect on gout ([4]; topical application of 2% lithium carbonate, rat ankle)?
**A.** attenuated gout
